The results in this text go back to patent US6511997B1, “Aminopyrazole derivatives” (Teikoku Hormone Mfg. Co., Ltd., priority 1998, dated 2003).

Regarding `CC(C)CC(=O)Nc1n[nH]c(-c2ccc(F)cc2)c1-c1ccncc1` [Example 19, 5-(4-Fluorophenyl)-3-isovalerylamino-4-(4-pyridyl)pyrazole], the melting point lay in the range of 291.1 to 294 °C.
The compound `COc1ccccc1CC(=O)Nc1c(-c2ccncc2)c(-c2ccc(F)cc2)nn1CCO` [Example 104, 3-(4-fluorophenyl)-1-(2-hydroxyethyl)-5-(2-methoxyphenylacetylamino)-4-(4-pyridyl)pyrazole] registered a melting point of 200.6 to 204.2 °C.
To `O=C(Cc1ccc(Cl)cc1)Nc1n[nH]c(-c2ccc(F)cc2)c1-c1ccncc1` [Example 6, 3-(4-Chlorophenylacetylamino)-5-(4-fluorophenyl)-4-(4-pyridyl)pyrazole] belongs 273.2 to 277.3 °C; to `CCn1nc(-c2ccc(F)cc2)c(-c2ccncc2)c1NC(=O)Cc1ccccc1Cl` [Example 98, 5-(2-Chlorophenylacetylamino)-1-ethyl-3-(4-fluorophenyl)-4-(4-pyridyl)pyrazole], 226 to 232.3 °C; to `Cn1nc(-c2ccc(F)cc2)c(-c2ccncc2)c1NC(=O)Cc1ccccn1` [Example 76, 3-(4-Fluorophenyl)-1-methyl-4-(4-pyridyl)-5-(2-pyridylacetylamino)pyrazole], 148.9 to 149.4 °C.
To `CCCn1nc(-c2ccc(F)cc2)c(-c2ccncc2)c1NC(=O)Cc1ccccc1` [Example 99, 3-(4-Fluorophenyl)-5-phenylacetylamino-1-propyl-4-(4-pyridyl)pyrazole] belongs 176.5 to 178.5 °C.
Compound `CC(C)[C@H](NC(=O)OC(C)(C)C)C(=O)Nc1n[nH]c(-c2ccc(F)cc2)c1-c1ccncc1` [Example 87, 3-(N′-Carbo-t-butoxy-L-valylamino)-5-(4-fluorophenyl)-4-(4-pyridyl)pyrazole] returned a melting point of 217.1 to 217.6 °C.
With `CCCn1nc(-c2ccc(F)cc2)c(-c2ccncc2)c1N(C)C(=O)Cc1ccccc1` [Example 128, 3-(4-Fluorophenyl)-5-(N-methyl-N-phenylacetylamino)-1-propyl-4-(4-pyridyl)pyrazole], the melting point was in the range of 124.5 to 127.3 °C.
`O=C(Cc1cccc(Cl)c1)Nc1n[nH]c(-c2ccc(F)cc2)c1-c1ccncc1` [Example 25, 3-(3-Chlorophenylacetylamino)-5-(4-fluorophenyl)-4-(4-pyridyl)pyrazole] returned a melting point of 249.7 to 250.8 °C.
Regarding `CN(C(=O)Cc1c(Cl)cccc1Cl)c1c(-c2ccncc2)c(-c2ccc(F)cc2)nn1C` [Example 122, 5-[N-(2,6-dichlorophenylacetyl)-N-methylamino]-3-(4-fluorophenyl)-1-methyl-4-(4-pyridyl)pyrazole], the melting point fell in the range of 205.7 to 207.8 °C.
The compound `CSc1ccc(CC(=O)Nc2c(-c3ccncc3)c(-c3ccc(F)cc3)nn2C)cc1` [Example 71, 3-(4-Fluorophenyl)-1-methyl-5-(4-methylthiophenylacetyl-amino)-4-(4-pyridyl)pyrazole] had a melting point of 182.5 to 184.7 °C.
To `COc1ccccc1CC(=O)Nc1c(-c2ccncc2)c(-c2ccc(F)cc2)nn1CCOCc1ccccc1` [Example 103, 1-(2-Benzyloxyethyl)-3-(4-fluorophenyl)-5-(2-methoxyphenylacetylamino)-4-(4-pyridyl)pyrazole] belongs 142.9 to 144.2 °C.
Then `Cn1nc(-c2ccc(F)cc2)c(-c2ccncc2)c1NC(=O)Cc1c(F)ccc([N+](=O)[O-])c1Cl` [Example 83, 5-(2-chloro-6-fluoro-3-nitrophenylacetylamino)-3-(4-fluorophenyl)-1-methyl-4-(4-pyridyl)pyrazole], with 129.2 to 130.6 °C; and `O=S(=O)(Nc1n[nH]c(-c2ccc(F)cc2)c1-c1ccncc1)c1ccccc1` [Example 139, 5-(4-fluorophenyl)-3-phenylsulfonylamino-4-(4-pyridyl)pyrazole], with 181 to 183.3 °C.
Compound `O=C(Cc1ccccc1)Nc1c(-c2ccncc2)c(-c2ccc(F)cc2)nn1CCO` [Example 105, 3-(4-Fluorophenyl)-1-(2-hydroxyethyl)-5-phenylacetylamino-4-(4-pyridyl)pyrazole] had a melting point of 180.3 to 183.6 °C.
Then `O=C(Cc1ccc(F)cc1)Nc1n[nH]c(-c2ccc(F)cc2)c1-c1ccncc1` [Example 26, 5-(4-Fluorophenyl)-3-(4-fluorophenylacetylamino)-4-(4-pyridyl)pyrazole], with 259.4 to 261.2 °C.
`Cn1nc(-c2ccc(F)cc2)c(-c2ccncc2)c1NC(=O)Cc1cccc(N)c1` [Example 94, 5-(3-Aminophenylacetylamino)-3-(4-fluorophenyl)-1-methyl-4-(4-pyridyl)pyrazole]: the melting point was 110.6 to 119 °C.
With `CC(C)[C@H](N)C(=O)Nc1n[nH]c(-c2ccc(F)cc2)c1-c1ccncc1.Cl`, the melting point fell in the range of 205.3 to 206.4 °C.
To `O=C(CCc1ccccc1)Nc1n[nH]c(-c2ccc(F)cc2)c1-c1ccncc1` [Example 2, 5-(4-Fluorophenyl)-3-(3-phenylpropionylamino)-4-(4-pyridyl)pyrazole] belongs 253.5 to 255.1 °C; to `Cn1nc(-c2ccc(F)cc2)c(-c2ccncc2)c1NC(=O)Cc1ccc(F)cc1` [Example 62, 3-(4-Fluorophenyl)-5-(4-fluorophenylacetylamino)-1-methyl-4-(4-pyridyl)pyrazole], 217.3 to 219.7 °C.
In turn, `Cn1cccc1CC(=O)Nc1c(-c2ccncc2)c(-c2ccc(F)cc2)nn1C` [Example 79, 3-(4-Fluorophenyl)-1-methyl-5-(1-methylpyrrol-2-ylacetylamino)-4-(4-pyridyl)pyrazole] came in with a melting point of 165.1 to 168.1 °C.
In turn, `O=C(Cc1cccs1)Nc1n[nH]c(-c2ccc(F)cc2)c1-c1ccncc1` [Example 11, 5-(4-Fluorophenyl)-4-(4-pyridyl)-3-(2-thienylacetylamino)pyrazole] returned a melting point of 264.6 to 268.3 °C.
Compound `O=C(Cc1ccc([N+](=O)[O-])cc1)Nc1n[nH]c(-c2ccc(F)cc2)c1-c1ccncc1` [Example 27, 5-(4-Fluorophenyl)-3-(4-nitrophenylacetylamino)-4-(4-pyridyl)pyrazole] displayed a melting point of 299.3 to 302.3 °C.
Then `CC(C)(C)C(=O)Nc1n[nH]c(-c2ccc(F)cc2)c1-c1ccncc1` [Example 21, 5-(4-Fluorophenyl)-4-(4-pyridyl)-3-pivaloylaminopyrazole], with 217.9 to 220.6 °C; and `Cn1nc(-c2ccc3c(c2)OCO3)c(-c2ccncc2)c1NC(=O)Cc1ccc(F)c(Cl)c1` [Example 110, 5-(3-Chloro-4-fluorophenylacetylamino)-1-methyl-3-(3,4-methylenedioxyphenyl)-4-(4-pyridyl)pyrazole], with 206.9 to 208.7 °C; and `CN(C(=O)Cc1ccccn1)c1c(-c2ccncc2)c(-c2ccc(F)cc2)nn1C` [Example 129, 3-(4-Fluorophenyl)-1-methyl-5-[N-methyl-N-(2-pyridylacetyl)amino]-4-(4-pyridyl)pyrazole], with 144 to 145.2 °C.
Then `COc1ccc(CC(=O)Nc2c(-c3ccncc3)c(-c3ccc(F)cc3)nn2C)c(OC)c1` [Example 52, 5-(2,4-Dimethoxyphenylacetylamino)-3-(4-fluorophenyl)-1-methyl-4-(4-pyridyl)pyrazole], with 179.3 to 182.2 °C.
With `O=C(Cc1ccncc1)Nc1n[nH]c(-c2ccc(F)cc2)c1-c1ccncc1` [Example 29, 5-(4-Fluorophenyl)-4-(4-pyridyl)-3-(4-pyridylacetylamino)pyrazole], the melting point was 248.3 to 251.8 °C (dec.).
Consider `CN(C(=O)Cc1ccccc1Cl)c1c(-c2ccncc2)c(-c2ccc(F)cc2)nn1-c1ccccc1` [Example 130, 3-(4-Fluorophenyl)-5-[N-methyl-N-(2-chlorophenylacetyl)amino]-1-phenyl-4-(4-pyridyl)pyrazole], for which the melting point was in the range of 203.8 to 205.6 °C.
Then `Cn1nc(-c2ccc(F)cc2)c(-c2ccncc2)c1NC(=O)Cc1ccc(O)cc1` [Example 95, 5-(4-hydroxyphenylacetylamino)-3-(4-fluorophenyl)-1-methyl-4-(4-pyridyl)pyrazole], with 127.1 to 128.6 °C; and `Cc1ccc(C)c(CC(=O)Nc2c(-c3ccncc3)c(-c3ccc(F)cc3)nn2C)c1` [Example 51, 5-(2,5-Dimethylphenylacetylanino)-3-(4-fluorophenyl)-1-methyl-4-(4-pyridyl)pyrazole], with 179.9 to 185.1 °C; and `CN(C(=O)Cc1ccccc1)c1nn(C)c(-c2ccc(F)cc2)c1-c1ccncc1` [Example 119, 5-(4-fluorophenyl)-1-methyl-3-(N-methyl-N-phenylacetylamino)-4-(4-pyridyl)pyrazole], with 169.8 to 171.1 °C.
Turning to `CN(C(=O)Cc1ccc(F)cc1)c1c(-c2ccncc2)c(-c2ccc(F)cc2)nn1C` [Example 125, 3-(4-Fluorophenyl)-5-[N-(4-fluorophenylacetyl)-N-methylamino]-1-methyl-4-(4-pyridyl)pyrazole], the melting point was 124.1 to 125.6 °C.
Compound `COc1ccccc1CC(=O)N(C)c1c(-c2ccncc2)c(-c2ccc(F)cc2)nn1C` [Example 131, 3-(4-Fluorophenyl)-5-[N-methyl-N-(2-methoxyphenylacetyl)amino]-1-methyl-4-(4-pyridyl)pyrazole] had a melting point of 143.6 to 145.3 °C.
To `O=C(Cc1ccsc1)Nc1n[nH]c(-c2ccc(F)cc2)c1-c1ccncc1` [Example 28, 5-(4-Fluorophenyl)-4-(4-pyridyl)-3-(3-thienylacetylamino)pyrazole] belongs 279.6 to 282.9 °C (dec.); to `Cn1nc(-c2ccc(F)cc2)c(-c2ccncc2)c1NC(=O)Cc1cccc(F)c1F` [Example 49, 5-(2,3-Difluorophenylacetylamno)-3-(4-fluorophenyl)-1-methyl-4-(4-pyridyl)pyrazole], 181.3 to 182.5 °C; to `CC(C)(C)OC(=O)N1CCC[C@H]1C(=O)Nc1n[nH]c(-c2ccc(F)cc2)c1-c1ccncc1` [Example 88, 3-(N′-Carbo-t-butoxy-L-prolylamino)-5-(4-fluorophenyl)-4-(4-pyridyl)pyrazole], 124.6 to 125.7 °C.
